Each block holds one compound with its values, some of them ahead of it.
Experiments:
[1] = biological target: holo-transferrin (92% iron-saturated human transferrin) (Homo sapiens, UniProt P02787); experiment: Capacity to remove iron from holo-transferrin (92% iron-saturated human transferrin); format: biochemical; settings: Fe3+:desferri-Exochelin 10:1
Method: (§1) A. 40% Iron-Saturated Human Transferrin. To assess the capacity of the 3 different desferri-Exochelins to remove iron from 40% iron-saturated human transferrin, each of them was incubated for 1, 3, and 24 hours with 40% iron-saturated transferrin such that the ratio of Fe^3+: desferri-Exochelin equaled 10:1. The incubation was carried out in PBS, pH 7.4. Afterwards, the Exochelin and transferrin were separated from each other by centrifugation through a 10,000 dalton cut-off filter. The transferrin (mass 76,000 daltons) was completely excluded by this filter whereas 85% of the Exochelin (mass<1,000) was recovered in the filtrate. To determine the total amount of exochelin recovered, the exochelin in the filtrate was saturated with a 20:1 molar excess of ferric ammonium citrate and subjected to reverse-phase HPLC as described above. To determine the amount of iron-saturated Exochelin in the filtrate at each time point, the filtrate was subjected to reverse-phase HPLC without the addition of iron. The % iron-saturation was calculated as follows: [formula]
B. Holo-Transferrin (92% Iron-Saturated Human Transferrin). To assess the capacity of the 3 different desferri-Exochelins to remove iron from holo-transferrin (92% iron-saturated human transferring, each of them was incubated for 1, 3, and 24 h with 92% iron-saturated transferrin such that the ratio of Fe^3+: desferri-Exochelin equaled 10:1, as in the aforementioned study with 40% iron-saturated transferrin. The % iron-saturation of the Exochelins was assayed as above.

[2] = biological target: human apotransferrin (<0.7% iron-saturated) (Homo sapiens, UniProt P02787); experiment: Control incubation with human apotransferrin (<0.7% iron-saturated); format: biochemical; settings: apotransferrin 38 mg/ml
Chain of human apotransferrin (<0.7% iron-saturated) (P02787 20-698): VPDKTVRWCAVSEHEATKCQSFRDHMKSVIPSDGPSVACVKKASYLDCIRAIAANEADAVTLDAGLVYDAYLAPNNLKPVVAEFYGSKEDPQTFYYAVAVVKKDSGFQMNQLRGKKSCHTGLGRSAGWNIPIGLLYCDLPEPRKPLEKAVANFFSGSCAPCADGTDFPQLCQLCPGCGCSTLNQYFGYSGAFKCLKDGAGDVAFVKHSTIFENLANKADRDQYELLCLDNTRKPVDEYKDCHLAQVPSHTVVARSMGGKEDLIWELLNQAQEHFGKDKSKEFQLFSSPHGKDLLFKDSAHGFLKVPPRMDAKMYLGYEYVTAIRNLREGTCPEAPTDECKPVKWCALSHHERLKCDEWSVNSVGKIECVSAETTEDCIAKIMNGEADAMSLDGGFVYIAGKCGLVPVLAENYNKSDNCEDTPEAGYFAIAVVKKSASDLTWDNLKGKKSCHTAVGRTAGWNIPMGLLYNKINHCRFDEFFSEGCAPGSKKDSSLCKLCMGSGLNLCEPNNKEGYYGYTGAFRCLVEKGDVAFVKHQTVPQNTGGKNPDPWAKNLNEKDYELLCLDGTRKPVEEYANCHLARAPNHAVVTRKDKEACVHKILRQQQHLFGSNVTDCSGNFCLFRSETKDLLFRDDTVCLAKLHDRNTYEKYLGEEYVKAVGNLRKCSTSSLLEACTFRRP
Method: as §1
C. Apotransferrin (<0.7% Iron-Saturated Human Transferrin). As a control, the three desferri-exochelins were incubated for 3 h and 24 h with human apotransferrin (<0.7% iron-saturated) at a concentration of 38 mg/ml, the same concentration of protein as in the study utilizing 92% iron-saturated transferrin in B above. None of the desferri-exochelins acquired appreciable amounts of iron (Table 6).

[3] = biological target: T1, 40% iron-saturated human transferrin (Homo sapiens, UniProt P02787); experiment: Capacity to remove iron from 40% iron-saturated human transferrin; format: biochemical; settings: Fe3+:desferri-Exochelin 10:1, PBS pH 7.4
T1 sequence (P02787 20-698): as above
Method: as §1

ferri-Exochelin 758SM = experiment: Capacity to remove iron from Ferri-Exochelin 758SM in the same vial (772SM(R) vs 772SM(S)); format: binding; settings: Table 3; for % Iron-Saturation 0 hour / % Iron-Saturation 1 hour: 772SM(R), 772SM(S) and 758SM in the same vial; for % of Calculated Iron-Saturation at Equilibrium 0 hour / % of Calculated Iron-Saturation at Equilibrium 1 hour: same vial, assuming comparable affinities
Method: To further assess the relative affinities of the stereoisomers desferri-Exochelin 772SM(R) and 772SM(S) for iron, their capacity to remove iron from a different exochelin species in the same vial were compared.
In the experiment,15.6 μg of 1.1% iron-saturated synthetic Exochelin 772SM(R) and 17.4 μg of 1.0% iron-saturated synthetic Exochelin 772SM(S) was mixed with 13.5 μg of 100% iron-saturated native Exochelin 758SM.

[4] = Capacity to chelate iron from ferric ammonium citrate solution (reverse-phase HPLC, 450 nm); format: binding; settings: for ferri-exochelin eluted from the HPLC column, % of the Exochelin added: absence of ferric ammonium citrate; for capacity to chelate iron (in words): ferric iron in solution; for exochelin eluted from the column in the ferri form: presence of ferric ammonium citrate, 10-fold molar excess of iron
Method: A. Capacity to Chelate Iron. To determine if the synthetic desferri-Exochelin 772SM(R) could chelate iron, as does the native form, the Exochelin was dissolved in 0.1% TFA containing ferric ammonium citrate at a 10-fold molar excess of iron to Exochelin. The solution was then loaded on a Bondapak Phenyl 125 Å 10 μm (3.9×300 mm) HPLC column and the Exochelin was subjected to reverse-phase HPLC (High Pressure Liquid Chromatography) on a Rainin (Woburn, Mass.) HPXL system. The Exochelin was eluted with a 0-100% gradient of a buffer consisting of 0.1% TFA and 50% acetonitrile at a flow rate of 1 ml/min. The ferri-exochelins were monitored at 220-nm and 450-nm absorbance. The mass of ferri-exochelin was assayed by measuring the area under the peak at 450-nm and applying a conversion factor derived from assaying known amounts of ferri-exochelin 772SM(R).
A. Capacity to Chelate Iron. The capacity of synthetic Exochelin 772SM(S) to chelate iron from a solution containing a 10-fold molar excess of ferric iron (ferric ammonium citrate) was assayed as described above.

[5] = biological target: T1, 40% iron-saturated human transferrin; experiment: Capacity to remove iron from 40% iron-saturated human transferrin; format: biochemical
[6] = listed as Synthetic Desferri-Exochelin 7728M(R)
[7] = listed as synthetic desferri-exochelin 772SM(R)
[8] = listed as Synthetic Desferri-Exochelin 772SM(R)
[9] = listed as synthetic Exochelin 772SM(R)
[10] = listed as synthetic desferri-Exochelin 772SM(R)
[11] = listed as Synthetic Desferri-Exochelin 772SM(S)
[12] = listed as synthetic desferri-exochelin 772SM(S)
[13] = listed as synthetic Exochelin 772SM(S)

Chain of holo-transferrin (92% iron-saturated human transferrin) (P02787 20-698): as above

- Iron-Saturation 0 h [1, 6]: 1.1%
- Iron-Saturation 1 h [1, 6]: 13.6%
- Iron-Saturation 3 h [1, 6]: 31.5%
- Iron-Saturation 24 h [1, 6]: 60.0%
- Iron-Saturation 24 h [1, 7]: 60.0%
- Iron-Saturation 0 h [2, 8]: 1.1%
- Iron-Saturation 3 h [2, 8]: 5.2%
- Iron-Saturation 24 h [2, 8]: 6.9%
- Iron-Saturation 1 h [3, 8]: 6.8%
- Iron-Saturation 3 h [3, 8]: 12.8%
- Iron-Saturation 24 h [3, 8]: 39.2%
- Iron-Saturation 24 h [3, 7]: 39.2%
- Iron-Saturation 0 h ([5]; Fe3+:desferri-Exochelin 10:1, PBS pH 7.4, listed as Synthetic Desferri-Exochelin 772SM(R)): 1.1%
SMILES: COC(=O)CCCCCC(=O)N(O)CCCCC(NC(=O)C1COC(c2ccccc2O)=N1)C(=O)OC(C)CC(=O)NC1CCCCN(O)C1=O [Synthetic 772SM(R), Exochelin 772SM(R)]
- % Iron-Saturation 0 hour (ferri-Exochelin 758SM): 1.1%
- % of Calculated Iron-Saturation at Equilibrium 0 hour (ferri-Exochelin 758SM): 3.7%
- % Iron-Saturation 1 hour (ferri-Exochelin 758SM): 28.2%
- % Iron-Saturation 1 hour (ferri-Exochelin 758SM; [9]): 28.2%
- % of Calculated Iron-Saturation at Equilibrium 1 hour (ferri-Exochelin 758SM): 94.3%
- % of Calculated Iron-Saturation at Equilibrium 1 hour (ferri-Exochelin 758SM; [9]): 94.3%
- ferri-exochelin eluted from the HPLC column, % of the Exochelin added [4, 10]: 1.08%
- capacity to chelate iron (in words) [4, 7]: rapidly chelates ferric iron in solution
- exochelin eluted from the column in the ferri form [4, 10]: 100%

- Iron-Saturation 0 h [1, 11]: 1.0%
- Iron-Saturation 1 h [1, 11]: 18.1%
- Iron-Saturation 3 h [1, 11]: 15.5%
- Iron-Saturation 24 h [1, 11]: 47.2%
- Iron-Saturation 24 h [1, 12]: 47.2%
- Iron-Saturation 0 h [2, 11]: 1.0%
- Iron-Saturation 3 h [2, 11]: 5.0%
- Iron-Saturation 24 h [2, 11]: 4.1%
- Iron-Saturation 1 h [3, 11]: 14.2%
- Iron-Saturation 3 h [3, 11]: 13.8%
- Iron-Saturation 24 h [3, 11]: 35.3%
- Iron-Saturation 24 h [3, 12]: 35.3%
- Iron-Saturation 0 h ([5]; Fe3+:desferri-Exochelin 10:1, PBS pH 7.4, listed as Synthetic Desferri-Exochelin 772SM(S)): 1.0%
SMILES: COC(=O)CCCCCC(=O)N(O)CCCCC(NC(=O)C1COC(c2ccccc2O)=N1)C(=O)OC(C)CC(=O)NC1CCCCN(O)C1=O [Synthetic 772SM(S), Exochelin 772SM(S)]
- % Iron-Saturation 0 hour (ferri-Exochelin 758SM): 1.0%
- % of Calculated Iron-Saturation at Equilibrium 0 hour (ferri-Exochelin 758SM): 3.3%
- % Iron-Saturation 1 hour (ferri-Exochelin 758SM): 25.9%
- % Iron-Saturation 1 hour (ferri-Exochelin 758SM; listed as Exochelin 772SM(S)): 25.9%
- % of Calculated Iron-Saturation at Equilibrium 1 hour (ferri-Exochelin 758SM): 86.6%
- % of Calculated Iron-Saturation at Equilibrium 1 hour (ferri-Exochelin 758SM; listed as Exochelin 772SM(S)): 86.6%
- ferri-exochelin eluted from the HPLC column, % of the Exochelin added [4, 13]: 1.03%
- capacity to chelate iron (in words) ([4]; listed as synthetic desferri-Exochelin 772SM(S)): rapidly chelates iron in solution
- exochelin eluted from the column in the ferri form [4, 13]: fully saturated with iron

Reference: patent US6335443B1, “Chemical synthesis of exochelins” (Keystone Biomedical, Inc., priority 1998, dated 2002)
